Assay results: patent EP4663632A1, “COMPOUNDS USEFUL FOR THE MODULATION OF THE ACTIVITY OF STING” (Sulis Therapeutics ApS, priority 2024, dated 2025)

Tests used:
[1] = target: C-terminal domain (CTD) of human STING (Homo sapiens, UniProt Q86WV6); assay: STING binding FP assay II; set-up: recombinant human STING protein (155-379); conditions: 7 nM STING
STING [2] = target: STING (Homo sapiens, UniProt Q86WV6); assay: Inhibition of STING-agonist-induced IFN-β release in HFF-1 cells (HFF-1 STING inhibition assay); type: cell-based; set-up: host or cells: HFF-1 human foreskin fibroblasts; conditions: 24h with compound, then 0.3 µM diABZI c3, 6h; ELISA
Protocol: To evaluate cellular effects of test compounds, we assessed inhibition of STING-agonist-induced IFN-β release in human foreskin fibroblasts HFF-1 cells (ATCC, SCRC-1041). Cells were seeded at a density of 10.000 cells/well in 96-well Nunclon Delta surface treated culture plate in DMEM growth medium (supplemented with 10% FBS, 1% Pen-strep). Cells were incubated over-night at 37°C 5% CO2 to allow adhesion. Next morning growth medium was renewed and a 7x concentration 3-step dilution series of test compounds (2,1% DMSO) diluted in growth medium were added to the appropriate well. Final DMSO concentration was 0.3%. […] Cells culture plates were further incubated, and supernatants were harvested after 6h and immediately stored at -20°C until determination of IFN-β release. Cell supernatants were analysed for IFN-β release using DuoSet human IFN-β ELISA (R&D systems, DY-814) following manufactures protocol except using 96-well, half-volume plates from Corning and subsequently use half volume for all steps throughout the protocol. In brief, plates were coated o/n with a 130x dilution of capturing antibody in PBS. Wells were washed 3x with PBS-T20 followed by blocking with 1% BSA diluted in TBS-T20 for 1h. […] Wells were washed 3x with PBS-T20 and detection antibody diluted 1:60 in 1% BSA in PBS was added to each well and incubated for 2h at rt. […]

STING [3] = target: T1, STING (Mus musculus, UniProt Q3TBT3); assay: Western Blot analysis for STING degradation in mouse RAW264.7 cells; type: cell-based; set-up: endogenous in cells; host or cells: RAW264.7 mouse cells; conditions: 19.5nM to 10 µM, 24 hours
T1 sequence (Q3TBT3 1-378): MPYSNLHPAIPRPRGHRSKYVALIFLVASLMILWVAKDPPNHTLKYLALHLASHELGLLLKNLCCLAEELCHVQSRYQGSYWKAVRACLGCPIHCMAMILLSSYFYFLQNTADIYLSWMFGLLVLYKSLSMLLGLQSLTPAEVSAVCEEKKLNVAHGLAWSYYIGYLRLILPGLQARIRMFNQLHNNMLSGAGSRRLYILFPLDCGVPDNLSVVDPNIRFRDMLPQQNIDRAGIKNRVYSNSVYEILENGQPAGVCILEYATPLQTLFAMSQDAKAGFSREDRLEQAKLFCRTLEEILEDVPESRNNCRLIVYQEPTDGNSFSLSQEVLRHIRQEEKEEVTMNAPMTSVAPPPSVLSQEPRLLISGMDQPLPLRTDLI
Protocol: To assess STING degradation in RAW264.7 cells, cells were seeded at a density of 60.000 cells/well in 24-well Nunclon Delta surface treated culture plate in RPMI-1640 growth medium (supplemented with 10% FBS, 1% Pen-strep). Cells were incubated over-night at 37°C 5% CO2 to allow adhesion. Next day growth medium was renewed and a 5x concentration of test compounds (2.5% DMSO) diluted in growth medium were added to the appropriate well. Final DMSO concentration was 0.5%. Cells were treated with a titration of test compound from 19.5nM to 10 µM 24 hours prior to cells lysis and subsequently analyzed by WB using anti-STING (1:1000) and anti-VCL (1:1000) antibodies. Controls included UT (DMSO) and 1.8µM diABZI treated cells.
For cell lysis, western blotting and data analysis, the methods described above for HFF-1 cells were applied.

STING [4] = target: T1, STING; assay: IFN-β secretion from mouse RAW264.7 cells treated with diABZI; type: cell-based; set-up: endogenous in cells; host or cells: RAW264.7 mouse cells; conditions: 1.8 µM diABZI c3 and 0.05 µM Example compound
Protocol: As expected, RAW264.7 cells treated with 1.8 µM diABZI c3 increased IFN-β secretion, resulting in a media concentration of around 1000 pg/mL. In contrast, cells treated with 1.8 µM diABZI c3 and 0.05 µM Example compounds 14, 16 or 24 reduced this expression to approximately 500 pg/mL.

Chain of STING (Homo sapiens, UniProt Q86WV6) (Q86WV6 whole entry): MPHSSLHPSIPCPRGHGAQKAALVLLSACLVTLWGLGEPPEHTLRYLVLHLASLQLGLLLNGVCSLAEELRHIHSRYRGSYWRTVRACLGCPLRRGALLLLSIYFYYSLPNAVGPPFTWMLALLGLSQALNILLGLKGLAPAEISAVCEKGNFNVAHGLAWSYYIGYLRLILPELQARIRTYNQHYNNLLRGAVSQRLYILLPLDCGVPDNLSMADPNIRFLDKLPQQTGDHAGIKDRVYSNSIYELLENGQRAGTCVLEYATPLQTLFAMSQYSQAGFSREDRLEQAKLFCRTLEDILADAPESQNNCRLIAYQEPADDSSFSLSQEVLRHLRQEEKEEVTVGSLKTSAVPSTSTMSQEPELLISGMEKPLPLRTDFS
Chain of C-terminal domain (CTD) of human STING (Q86WV6 155-379): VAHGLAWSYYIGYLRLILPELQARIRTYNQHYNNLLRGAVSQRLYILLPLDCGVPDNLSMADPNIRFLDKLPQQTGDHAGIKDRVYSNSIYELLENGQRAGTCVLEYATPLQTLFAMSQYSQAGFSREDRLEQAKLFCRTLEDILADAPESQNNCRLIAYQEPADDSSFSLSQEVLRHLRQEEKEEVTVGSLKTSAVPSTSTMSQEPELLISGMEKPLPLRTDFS

SMILES | IC50 [1] [nM] | EC50 (STING [2]) [nM] | STING degradation (Western Blot, Figure 2) (STING [3]) | IFN-β media concentration (STING [4])
CCn1nc(C)cc1C(=O)N=c1n(C)c2cc(C(N)=O)ccc2n1CCC(CCn1c(=NC(=O)c2cc(C)nn2CC)n(C)c2cc(C(N)=O)ccc21)OCC(=O)NCCOCCOCCOCCOCCC(=O)NCCOCCOCCOCCOCC(=O)N[C@H](C(=O)N1C[C@H](O)C[C@H]1C(=O)NCc1ccc(-c2scnc2C)cc1)C(C)(C)C (some centres unmarked) [Example 14] | 5.7 | 1000 to 5000 | dose-dependent STING degradation | approximately 500 pg/mL
CCn1nc(C)cc1C(=O)N=c1n(C)c2cc(C(N)=O)ccc2n1CCC(CCn1c(=NC(=O)c2cc(C)nn2CC)n(C)c2cc(C(N)=O)ccc21)OCC(=O)NCCOCCOCCOCCOCCC(=O)NCCOCCOCCOCCOCCNc1cccc2c1C(=O)N(C1CCC(=O)NC1=O)C2=O (centres unmarked) [Example 16] | 4.5 | < 200 | dose-dependent STING degradation | approximately 500 pg/mL
